The record followed here is patent US9850258B2, “Substituted tetrahydrocarbazole and carbazole carboxamide compounds” (BRISTOL-MYERS SQUIBB COMPANY, priority 2013, dated 2017).

In one assay the target is Jak2 tyrosine kinase (Homo sapiens (Human), UniProt O60674). Briefly: Jak2 Tyrosine Kinase Assay. It is filed as biochemical. The note with it: for IC50: Jak2 tyrosine kinase, ATP 30 μM.
The subject of assay [1] is CD69 expression on B cells in human whole blood. Briefly: Whole Blood Assay of BCR-Stimulated CD69 Expression on B Cells. It is filed as cell-based.
For the next assay, the target named is human recombinant Btk (Homo sapiens (Human), UniProt Q06187). The assay is described as follows: Human Recombinant Btk Enzyme Assay. The format is biochemical.
Chain of human recombinant Btk (Q06187 whole entry): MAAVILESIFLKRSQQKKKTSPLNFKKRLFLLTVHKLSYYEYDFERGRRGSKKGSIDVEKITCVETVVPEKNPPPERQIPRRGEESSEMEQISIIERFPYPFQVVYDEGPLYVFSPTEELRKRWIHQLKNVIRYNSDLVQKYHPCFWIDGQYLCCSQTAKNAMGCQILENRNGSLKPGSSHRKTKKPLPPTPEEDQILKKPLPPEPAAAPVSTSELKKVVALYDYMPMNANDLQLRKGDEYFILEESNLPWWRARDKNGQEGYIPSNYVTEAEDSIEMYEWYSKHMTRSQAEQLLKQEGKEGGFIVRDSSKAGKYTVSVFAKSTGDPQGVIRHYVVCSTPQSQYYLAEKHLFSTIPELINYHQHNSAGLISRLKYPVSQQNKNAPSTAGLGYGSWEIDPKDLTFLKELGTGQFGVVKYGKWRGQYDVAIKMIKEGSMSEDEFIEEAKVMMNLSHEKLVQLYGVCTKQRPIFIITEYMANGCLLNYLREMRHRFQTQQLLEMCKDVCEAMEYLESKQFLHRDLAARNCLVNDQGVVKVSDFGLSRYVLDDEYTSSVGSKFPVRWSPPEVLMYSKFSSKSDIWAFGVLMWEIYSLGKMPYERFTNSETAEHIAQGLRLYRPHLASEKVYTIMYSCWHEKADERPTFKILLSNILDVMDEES

Where two headings read alike, the source gives them in different places.

Chain of Jak2 tyrosine kinase (O60674 whole entry): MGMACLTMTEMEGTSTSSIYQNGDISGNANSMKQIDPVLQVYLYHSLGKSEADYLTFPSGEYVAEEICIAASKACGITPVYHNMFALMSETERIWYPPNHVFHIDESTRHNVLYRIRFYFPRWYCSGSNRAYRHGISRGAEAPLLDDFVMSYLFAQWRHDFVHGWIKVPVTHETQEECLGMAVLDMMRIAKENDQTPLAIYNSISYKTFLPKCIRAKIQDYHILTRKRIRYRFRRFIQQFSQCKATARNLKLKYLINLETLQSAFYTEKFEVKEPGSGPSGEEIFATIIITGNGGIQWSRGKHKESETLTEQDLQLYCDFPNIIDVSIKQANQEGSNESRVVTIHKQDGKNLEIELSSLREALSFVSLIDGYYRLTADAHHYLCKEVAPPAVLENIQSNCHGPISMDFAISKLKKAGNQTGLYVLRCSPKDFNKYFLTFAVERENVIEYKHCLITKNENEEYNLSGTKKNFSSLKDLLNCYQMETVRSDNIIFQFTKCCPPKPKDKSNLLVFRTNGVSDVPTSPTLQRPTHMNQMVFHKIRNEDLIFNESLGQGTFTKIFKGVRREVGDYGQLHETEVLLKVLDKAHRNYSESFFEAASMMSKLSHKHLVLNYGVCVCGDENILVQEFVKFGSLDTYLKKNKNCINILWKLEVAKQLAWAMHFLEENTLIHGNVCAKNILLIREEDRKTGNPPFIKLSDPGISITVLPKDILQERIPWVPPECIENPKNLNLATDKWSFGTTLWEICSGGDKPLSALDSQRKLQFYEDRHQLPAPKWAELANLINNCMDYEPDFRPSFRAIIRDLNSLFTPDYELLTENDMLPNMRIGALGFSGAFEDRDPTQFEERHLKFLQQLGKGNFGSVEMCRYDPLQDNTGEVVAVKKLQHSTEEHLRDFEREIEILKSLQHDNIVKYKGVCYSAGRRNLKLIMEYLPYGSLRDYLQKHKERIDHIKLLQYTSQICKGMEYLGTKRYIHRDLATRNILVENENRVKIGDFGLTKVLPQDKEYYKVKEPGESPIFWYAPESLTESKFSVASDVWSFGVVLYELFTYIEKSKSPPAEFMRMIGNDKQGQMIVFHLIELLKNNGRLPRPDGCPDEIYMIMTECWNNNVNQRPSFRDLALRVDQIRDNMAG

What is called IC50 is the concentration needed to halve the response being measured. Turning to `Cc1c(-c2c(F)cc(C(N)=O)c3[nH]c4cc(C(C)(C)O)ccc4c23)cccc1-n1c(=O)c2cccc(F)c2n(C)c1=O` (atropisomer, axis not shown) [Example 18, 3-Fluoro-4-(3-(S)-(8-fluoro-1-methyl-2,4-dioxo-1,2-dihydroquinazolin-3(4H)-yl)-2-methylphenyl)-7-(2-hydroxypropan-2-yl)-9H-carbazole-1-carboxamide], the IC50 on Jak2 tyrosine kinase turned out to be 2200 nM.
Regarding `Cc1c(-c2c(F)cc(C(N)=O)c3[nH]c4cc(C(C)(C)O)ccc4c23)cccc1-n1c(=O)c2cccc(F)c2n(C)c1=O` (atropisomer, axis not shown) [Example 19, 3-Fluoro-4-(R)-(3-(S)-(8-fluoro-1-methyl-2,4-dioxo-1,2-dihydroquinazolin-3(4H)-yl)-2-methylphenyl)-7-(2-hydroxypropan-2-yl)-9H-carbazole-1-carboxamide], the IC50 at Jak2 tyrosine kinase worked out at 2000 nM; in assay [1], 91 nM.
Consider `Cc1cc(C(N)=O)c2[nH]c3cc(C(C)(C)O)ccc3c2c1-c1cccc(-n2c(=O)c3cccc(F)c3n(C)c2=O)c1C` (atropisomer, axis not shown) [Example 29, 4-(R)-(3-(S)-(8-Fluoro-1-methyl-2,4-dioxo-1,2-dihydroquinazolin-3(4H)-yl)-2-methylphenyl)-7-(2-hydroxypropan-2-yl)-3-methyl-9H-carbazole-1-carboxamide], for which the IC50 on human recombinant Btk came out at 0.66 nM; at Jak2 tyrosine kinase, 790 nM.
As to `Cc1c(-c2c(Cl)cc(C(N)=O)c3[nH]c4cc(C(C)(C)O)ccc4c23)cccc1-n1c(=O)[nH]c2c(F)cc(F)cc2c1=O` (racemic) [Example 10, 3-Chloro-4-(RS)-(3-(RS)-(6,8-difluoro-2,4-dioxo-1,2-dihydroquinazolin-3(4H)-yl)-2-methylphenyl)-7-(2-hydroxypropan-2-yl)-9H-carbazole-1-carboxamide], the values for the IC50 at human recombinant Btk and against Jak2 tyrosine kinase were 0.83 nM and over 2000 nM, respectively. Also, the “Ratio of Jak2/Btk IC50 values” at Jak2 tyrosine kinase (selectivity of Btk over Jak2) is over 2400.
In the case of `Cc1c(-c2c(F)cc(C(N)=O)c3[nH]c4cc(C(C)(C)O)ccc4c23)cccc1-n1c(=O)[nH]c2c(F)cc(F)cc2c1=O` (single isomer, unassigned) [Example 73], the IC50 in assay [1] (Homo sapiens, B-cell) was 21 nM.
Turning to `Cc1nc(C(N)=O)c2[nH]c3cc(C(C)(C)O)ccc3c2c1-c1cccc(-n2cnc3ccccc3c2=O)c1C` [Comparative Example 76, 7-(2-Hydroxypropan-2-yl)-3-methyl-4-(2-methyl-3-(4-oxoquinazolin-3(4H)-yl)phenyl)-9H-pyrido[3,4-b]indole-1-carboxamide, reference compound], the “Ratio of Jak2/Btk IC50 values” at Jak2 tyrosine kinase (kinase selectivity of Btk over Jak2, larger value = more selective for Btk) came out at 29.
`Cc1c(-c2c(Cl)cc(C(N)=O)c3[nH]c4cc(C(C)(C)O)ccc4c23)cccc1-n1c(=O)c2ccccc2n(C)c1=O` [Example 3, 3-Chloro-7-(2-hydroxypropan-2-yl)-4-(R)-(2-methyl-3-(1-methyl-2,4-dioxo-1,2-dihydroquinazolin-3(4H)-yl)phenyl)-9H-carbazole-1-carboxamide]: the values for the 50% inhibitory concentration (IC50) on human recombinant Btk and on Jak2 tyrosine kinase were 1 nM and 2000 nM, respectively. Besides, on Jak2 tyrosine kinase (selectivity of Btk over Jak2), the “Ratio of Jak2/Btk IC50 values” is recorded as 2000.
The matching figures for `Cc1c(-c2c(Cl)cc(C(N)=O)c3[nH]c4cc(C(C)(C)O)ccc4c23)cccc1-n1c(=O)c2cccc(C)c2n(C)c1=O` [Example 4, 3-Chloro-4-(R)-(3-(1,8-dimethyl-2,4-dioxo-1,2-dihydroquinazolin-3(4H)-yl)-2-methylphenyl)-7-(2-hydroxypropan-2-yl)-9H-carbazole-1-carboxamide]: 1.3 nM, 350 nM and 270.
The matching figures for `COc1cccc2c(=O)n(-c3cccc(-c4c(Cl)cc(C(N)=O)c5[nH]c6cc(C(C)(C)O)ccc6c45)c3C)c(=O)n(C)c12` [Example 7, 3-Chloro-7-(2-hydroxypropan-2-yl)-4-(R)-(3-(8-methoxy-1-methyl-2,4-dioxo-1,2-dihydroquinazolin-3(4H)-yl)-2-methylphenyl)-9H-carbazole-1-carboxamide]: 0.81 nM, 1600 nM and 2000.
The matching figures for `Cc1c(-c2c(Cl)cc(C(N)=O)c3[nH]c4cc(C(C)(C)O)ccc4c23)cccc1-n1c(=O)c2cc(F)ccc2n(C)c1=O` [Example 8, 3-Chloro-4-(R)-(3-(6-fluoro-1-methyl-2,4-dioxo-1,2-dihydroquinazolin-3(4H)-yl)-2-methylphenyl)-7-(2-hydroxypropan-2-yl)-9H-carbazole-1-carboxamide]: 0.65 nM, over 2000 nM and over 3100.
As to `Cc1c(-c2c(Cl)cc(C(N)=O)c3[nH]c4cc(C(C)(C)O)ccc4c23)cccc1-n1c(=O)c2ccc(F)cc2n(C)c1=O` [Example 9, 3-Chloro-4-(R)-(3-(7-fluoro-1-methyl-2,4-dioxo-1,2-dihydroquinazolin-3(4H)-yl)-2-methylphenyl)-7-(2-hydroxypropan-2-yl)-9H-carbazole-1-carboxamide], the concentration for half-maximal inhibition (IC50) is 0.62 nM on human recombinant Btk and over 2000 nM against Jak2 tyrosine kinase. For the same molecule, at Jak2 tyrosine kinase (selectivity of Btk over Jak2), the “Ratio of Jak2/Btk IC50 values” is over 3200.
For `Cc1c(-c2c(F)cc(C(N)=O)c3[nH]c4cc(C(C)(C)O)ccc4c23)cccc1-n1c(=O)c2cccc(F)c2n(C)c1=O` [Example 17, 3-Fluoro-4-(3-(8-fluoro-1-methyl-2,4-dioxo-1,2-dihydroquinazolin-3(4H)-yl)-2-methylphenyl)-7-(2-hydroxypropan-2-yl)-9H-carbazole-1-carboxamide], the IC50 against Jak2 tyrosine kinase was 170 nM.
`Cc1c(-c2c(F)cc(C(N)=O)c3[nH]c4cc(C(C)(C)O)ccc4c23)cccc1-n1c(=O)[nH]c2c(F)cccc2c1=O` [Example 20, 3-Fluoro-4-(3-(8-fluoro-2,4-dioxo-1,2-dihydroquinazolin-3(4H)-yl)-2-methylphenyl)-7-(2-hydroxypropan-2-yl)-9H-carbazole-1-carboxamide]: the IC50 at human recombinant Btk amounted to 0.46 nM; at Jak2 tyrosine kinase it was 1200 nM. The “Ratio of Jak2/Btk IC50 values” on Jak2 tyrosine kinase (selectivity of Btk over Jak2) is 2600.
For `Cc1c(-c2c(Cl)cc(C(N)=O)c3[nH]c4cc(C(C)(C)O)ccc4c23)cccc1-n1c(=O)ccn(-c2ccc(F)cc2)c1=O` [Example 23, 3-Chloro-4-(3-(3-(4-fluorophenyl)-2,6-dioxo-2,3-dihydropyrimidin-1(6H)-yl)-2-methylphenyl)-7-(2-hydroxypropan-2-yl)-9H-carbazole-1-carboxamide], in that order: 0.44 nM, 440 nM and 1000.
The matching figures for `Cc1c(-c2c(Cl)cc(C(N)=O)c3[nH]c4cc(C(C)(C)O)ccc4c23)cccc1-n1c(=O)ccn(-c2ccc(F)cc2)c1=O` [Example 24, 3-Chloro-4-(R)-(3-(3-(4-fluorophenyl)-2,6-dioxo-2,3-dihydropyrimidin-(6H)-yl)-2-methylphenyl)-7-(2-hydroxypropan-2-yl)-9H-carbazole-1-carboxamide]: 0.33 nM, 1800 nM and 5500.
For the molecule `Cn1c(=O)n(-c2cccc(-c3c(Cl)cc(C(N)=O)c4[nH]c5cc(C(C)(C)O)ccc5c34)c2Cl)c(=O)c2ccccc21` [Example 42, 3-Chloro-4-(2-chloro-3-(1-methyl-2,4-dioxo-1,2-dihydroquinazolin-3(4H)-yl)phenyl)-7-(2-hydroxypropan-2-yl)-9H-carbazole-1-carboxamide], at human recombinant Btk, the half-inhibitory concentration (IC50) is 2 nM.
Same read-out and setting: with `Cn1c(=O)n(-c2cccc(-c3c(Cl)cc(C(N)=O)c4[nH]c5cc(C(C)(C)O)ccc5c34)c2Cl)c(=O)c2ccccc21` [Example 43, 3-Chloro-4-(R)-(2-chloro-3-(1-methyl-2,4-dioxo-1,2-dihydroquinazolin-3(4H)-yl)phenyl)-7-(2-hydroxypropan-2-yl)-9H-carbazole-1-carboxamide] the figure was 0.47 nM.
As for `Cn1c(=O)n(-c2cccc(-c3c(Cl)cc(C(N)=O)c4[nH]c5cc(C(C)(C)O)ccc5c34)c2Cl)c(=O)c2cccc(F)c21` [Example 44, 3-Chloro-4-(2-chloro-3-(8-fluoro-1-methyl-2,4-dioxo-1,2-dihydroquinazolin-3(4H)-yl)phenyl)-7-(2-hydroxypropan-2-yl)-9H-carbazole-1-carboxamide], at human recombinant Btk, the IC50 stood at 4.7 nM.
On to `CC(C)(O)c1ccc2c(c1)[nH]c1c(C(N)=O)cc(Cl)c(-c3cccc(-n4c(=O)[nH]c5c(F)cccc5c4=O)c3Cl)c12` [Example 47, 3-Chloro-4-(R)-(2-chloro-3-(8-fluoro-2,4-dioxo-1,2-dihydroquinazolin-3(4H)-yl)phenyl)-7-(2-hydroxypropan-2-yl)-9H-carbazole-1-carboxamide], for which the concentration for half-maximal inhibition (IC50) at human recombinant Btk turned out to be 0.35 nM; at Jak2 tyrosine kinase it was 1800 nM. The “Ratio of Jak2/Btk IC50 values” at Jak2 tyrosine kinase (selectivity of Btk over Jak2) worked out at 5100.
